Results taken from patent publication US20260263552A1, “PHARMACEUTICAL COMPOSITIONS FOR IMPROVING ORAL BIOAVAILABILITY” (priority 2023, published 2026).

Legend:
[1] = Oral absorption / pharmacokinetics of Compound (I) formulations in cynomolgus monkeys; assay type: in vivo; settings: cyno monkeys
Procedure: An aqueous suspension of […] was prepared at 10% solid content. […] Six enteric coated tablets were encapsulated in a size #00 hard gelatin capsule for the cyno PK study. Each cyno monkey was dosed with 2 capsules (12 enteric coated tablets). […] The mean exposure is shown in FIG. 1 with error bars showing the standard deviation.

[2] = Dog pK study (Example 4), 20 mg dose; set-up: species or system dogs; settings: in vivo, iv, 10 mg
[3] = Dog pK study (Example 5E), effect of sodium decanoate amount and number of tablets, 100 mg dose; set-up: species or system dogs; settings: in vivo, iv, 10 mg
Procedure: Blood samples were withdrawn over a period of 72 hours. […] Error bars describe standard deviation. […] Decreasing the amount of sodium decanoate decreased PK exposure at 330 mg of sodium decanoate. […] Table 12 summarizes all of the PK data for all the formulations tested in Example 5.

[4] = 0.1 mg/kg IV (0.5 mg), reference

Compound: CCCC[C@H]1C(=O)N(C)[C@@H](CCCC)C(=O)N[C@@H](CC(C)C)C(=O)N[C@H](C(=O)NCC(=O)N[C@@H](Cc2cn(CCOCCOCCCOCCCOCCOCCOCCOCCOCCOCCOCCOCCNC(=O)CC[C@H](NC(=O)CCCCCCCCCCCCCCCCC(=O)O)C(=O)O)nn2)C(=O)O)CSCC(=O)N[C@@H](Cc2ccc(O)cc2)C(=O)N(C)[C@@H](C)C(=O)N[C@@H](CC(N)=O)C(=O)N2CCC[C@H]2C(=O)N[C@@H](CN)C(=O)N[C@@H](CC(C)C)C(=O)N2C[C@H](O)C[C@H]2C(=O)N[C@@H](Cc2c[nH]c3ccccc23)C(=O)N[C@@H](CCN)C(=O)N[C@@H](Cc2cn(CC(=O)O)c3ccccc23)C(=O)N1C [Compound (I)]
- AUC0-24 h (nM · h) Mean ([1]; 0.1 mg/kg IV (0.5 mg)): 47.61351 µM·h
- AUCinf (nM · h) Mean ([1]; 0.1 mg/kg IV (0.5 mg)): 51.96595 µM·h
- Cmax ([1]; 0.1 mg/kg IV (0.5 mg)): 798 nM
- BA (%) Mean [1, 4]: 100.00%
- BA (%) using AUCInf Mean [1, 4]: 100.00%
- plasma concentration of Compound (I) over time ([1]; oral, 12 mg, formulated as in Example 1, 72 hours): good plasma concentration
- AUCinf (ng · h/mL) Mean [2]: 1198.53803 µg·h/mL
- Cmax (ng/mL) Mean [2]: 25466.29 ng/mL
- AUCinf (ng · h/mL) Mean [3]: 1198.53803 µg·h/mL
- Cmax (ng/mL) Mean [3]: 25466.29 ng/mL
